# Read-outs that look alike come from different tables or passages of the source. Marks after values point to notes of the source that are not given here.
# Legend:
# D. melanogaster [1] = settings: in vivo
# Method: (§1) Analysis of the genotoxic and antigenotoxic activities of borage seed oil and GLA, was evaluated by the Drosophila SMART test. Two different Drosophila melanogaster strains carrying visible wing genetic markers were used: the flare (flr) strain flr^3/ln (3LR) TM3, Bd^s and the multiple wing-hair (mwh) strain mwh/mwh. The marker multiple wing hairs (mwh, 3_0.3) is a recessive mutation that is viable in homozygous flies, producing multiple hairs per cell instead of the wild type single-hair trichome. The marker flare (flr^3, 3_38.3) is a recessive mutation which produces individual wing hairs that are malformed. The flr^3 allele is retained via a balancer chromosome carrying multiple inversions and a dominant marker which is homozygous lethal (TM3, Bd^S: Third Multiple 3, Beaded-Serrate). Additional information on genetic markers can be found in [31].
# (§2) Crosses were performed with optimally fertile virgin females of the flr3/TM3, Bd^s strain and mwh/mwh males. After 8 h egg-laying, 72±3 h old larvae were washed in distilled water, transferred to fresh vials with 0.85 g Drosophila Instant Medium (formula 4–24, Carolina Biological Supply, Burlington NC, USA) which were wetted with 4 ml after of put solutions of increasing concentrations of the borage seed oil and GLA. Test groups consisting of 100 larvae each were: (i) negative control (distilled water); (ii) mutagenic positive control (hydrogen peroxide 0.12 M); (iii) 5 vials with increasing concentrations of borage seed oil (12.5, 18.7, 31.2, 62.5 and 125 µl/ml); and (iv) 5 vials with increasing concentrations of GLA (8.9, 13, 22, 45 and 90 mM). Taking into account the average daily food intake of D. melanogaster (1 mg/day) and the average body weight of D. melanogaster individuals (1 mg), the concentration range for both borage seed oil and GLA were calculate to fit them into the recommended fat daily intake for humans (60 g of total fat/day for 60 kg human body weight). Emerging adults of all groups were counted and stored in 70% ethanol to be analysed. Procedures are: 1) Toxicity assays evaluated (number of individuals born in treatment/number of individuals born in the negative control)x100. 2) Genotoxicity assays evaluated mutation rate diagnosis of different groups and 3) Antigenotoxicity testing, combined treatments were performed as previously described by Anter et al., 2011 [32], by using hydrogen peroxide 0.12 M as the genotoxicant and the concentrations of borage seed oil and GLA mentioned above in groups (iii) and (iv), evaluating mutation rate diagnosis of different treatments.
# (§3) Marker-heterozygous genotypes (mwh/flr^3) were mounted on slides with Faurés solution. Both dorsal and ventral surfaces of the wings containing 22,000 cells were screened under a photonic microscope at 400× magnification for the occurrence of individual spots (mwh or flr phenotype) or twin spots (mwh clone adjacent to flr clone). […] Large individual spots with three or more cells showing mwh or flr phenotypes corresponded to mutational events occurring earlier during larvae development. Twin spots with two juxtaposed clones corresponded uniquely to recombination events between the flr^3 gene and the centromere.
# (§4) For the evaluation of genotoxic effects, the frequencies of spots per fly of each treated series were compared to the concurrent negative control for each class of mutational clone. A multiple-decision procedure was used to categorize results as positive, weakly positive, inconclusive, or negative. Statistical analyses were carried out for single, large, twin and total number of spots recovered. Inconclusive and positive data were evaluated by the non-parametric U test of Mann, Whitney and Wilcoxon according to Frei and Würgler 1995 [36]. The inhibition percentage for each compound and treatment was calculated following Abraham, 1994 [37] (hydrogen peroxide alone - substance assayed + hydrogen peroxide / hydrogen peroxide alone) × 100.
# D. melanogaster [2] = experiment: Longevity assay (life span and health span); format: in vivo, Drosophila melanogaster; settings: all assayed concentrations of GLA
# Method: The F1 progeny from […]^3 parental strains produced by 24 h egg-laying in yeast was used. Longevity experiments were carried out at 25°C, following the procedure described by Chavous et al., 2001 [33]. Briefly, synchronised transheterozygous 72±12 h old larvae were washed in distilled water and separated into groups of 100 individuals in vials with a mixture of 0.85 g Drosophila Instant Medium and 4 ml of the different concentrations of the two substances selected. […] Three replicates were used during the complete life span for each control and concentration established. The number of survivors was counted and the medium renewed twice a week. In addition, the Kaplan-Meier estimates of the survival function for each concentration and respective control are plotted as survival curves. Statistical analyses and significance of the curves were assessed using the SPSS 15.0 statistics software (SPSS Inc. Headquarters, Chicago, IL, USA) using the Log-Rank (Mantel-Cox) method.
# HL60 cells = experiment: Cytotoxicity assay, Trypan Blue dye exclusion; format: cell-based; settings: Homo sapiens, HL-60, 72 h, read-out: IC50 (concentration causing 50% inhibition of cell growth)
# Method: The human promyelocytic leukaemia cell line HL60 was obtained from Dr. José M. Villalba Montoro (Department of Cell Biology, Univ. Cordoba, Spain), [34]. HL60 cells were incubated in RPMI-1640 medium (Cat N° A1049101, Invitrogen) supplemented with: L-glutamine 200 mM, (Cat N° G7513, Sigma-Aldrich, St. Louis, MO) antibiotics 100× (Cat N° A5955, Sigma-Aldrich, St. Louis, MO) and 10% heat-inactivated foetal bovine serum (Cat N° SO1805, Linus). Cells were maintained at 37°C in an atmosphere of 5% CO2. Cultures were plated at a density of 12.5×10^4cells/ml in 40 ml culture bottles (25 cm^2) and passed every 2 days.
# For the assessment of cell viability, HL60 cells were placed in 12 well culture plates (1×10^5 cells/ml) and treated for 72 h with increasing concentrations of borage seed oil and GLA. Cell viability was determined by the Trypan Blue dye exclusion test (T8154, Sigma-Aldrich, St. Louis, MO). Cells were counted by adding an aliquot of 10 µl of the culture to 10 µl of the Trypan Blue dye. The mix was counted under a light inverted microscope using a Neubauer chamber (AE30/31, Motic). Aliquots were taken after 24, 36, 48, 60 and 72 h incubation. […] Curves are expressed as the percentage of survival with respect to controls at 72 h of growth. […]
# D. melanogaster [3] = settings: for % of inhibition: calculated according to Abraham (1994)
# Method: as §1, §2, §3, §4
# D. melanogaster [4] = experiment: Toxicity assay: survival of adults from treated 72 h old larvae; format: in vivo, Drosophila melanogaster; settings: for average toxicities (survival): average over tested concentrations
# Method: Crosses were performed with optimally fertile virgin females of the flr3/TM3, Bd^s strain and mwh/mwh males. After 8 h egg-laying, 72±3 h old larvae were washed in distilled water, transferred to fresh vials with 0.85 g Drosophila Instant Medium (formula 4–24, Carolina Biological Supply, Burlington NC, USA) which were wetted with 4 ml after of put solutions of increasing concentrations of the borage seed oil and GLA. […] Taking into account the average daily food intake of D. melanogaster (1 mg/day) and the average body weight of D. melanogaster individuals (1 mg), the concentration range for both borage seed oil and GLA were calculate to fit them into the recommended fat daily intake for humans (60 g of total fat/day for 60 kg human body weight). Emerging adults of all groups were counted and stored in 70% ethanol to be analysed. Procedures are: 1) Toxicity assays evaluated (number of individuals born in treatment/number of individuals born in the negative control)x100.
# [5] = system: human hepatoma HepG2 cells (E9 cells); set-up: method as in PMID 9660301; settings: cited from earlier work
# [6] = system: leukocytes (HL-60, Jurkat and Raji cells); set-up: method as in PMID 12489694; settings: cited from earlier work
smiles,measurement,setting,value
"CCCCC/C=C\C/C=C\C/C=C\CCCCC(=O)O [GLA, all cis-6,9,12-octadecatrienoic acid]",weighted average of induced spots/wing,D. melanogaster [1]; Drosophila melanogaster,0.23 spots/wing
same,genotoxicity,D. melanogaster [1],non-genotoxic
same,effect on life span,D. melanogaster [2],decreased the mean survival time significantly
same,IC50,HL60 cells,87 µM
same,Mutation rate (Spots per wing) Large single spots (>2 cells) m = 5,D. melanogaster [3]; GLA 8.9 mM + H2O2 0.12 M,0.02 (1) spots per wing
same,Mutation rate (Spots per wing) Small single spots (1–2 cells) m = 2,D. melanogaster [3]; GLA 8.9 mM + H2O2 0.12 M,0.3 (15) spots per wing
same,Mutation rate (Spots per wing) Total spots m = 2,D. melanogaster [3]; GLA 8.9 mM + H2O2 0.12 M,0.32 spots per wing
same,Mutation rate (Spots per wing) Twin spots m = 5,D. melanogaster [3]; GLA 8.9 mM + H2O2 0.12 M,0 spots per wing
same,% of inhibition,D. melanogaster [3]; GLA 8.9 mM + H2O2 0.12 M,37%
same,Mutation rate (Spots per wing) Large single spots (>2 cells) m = 5,D. melanogaster [3]; GLA 13 mM + H2O2 0.12 M,0 spots per wing
same,Mutation rate (Spots per wing) Small single spots (1–2 cells) m = 2,D. melanogaster [3]; GLA 13 mM + H2O2 0.12 M,0.25 (3) spots per wing
same,Mutation rate (Spots per wing) Total spots m = 2,D. melanogaster [3]; GLA 13 mM + H2O2 0.12 M,0.25 spots per wing
same,Mutation rate (Spots per wing) Twin spots m = 5,D. melanogaster [3]; GLA 13 mM + H2O2 0.12 M,0 spots per wing
same,% of inhibition,D. melanogaster [3]; GLA 13 mM + H2O2 0.12 M,51%
same,Mutation rate (Spots per wing) Large single spots (>2 cells) m = 5,D. melanogaster [3]; GLA 22 mM + H2O2 0.12 M,0 spots per wing
same,Mutation rate (Spots per wing) Small single spots (1–2 cells) m = 2,D. melanogaster [3]; GLA 22 mM + H2O2 0.12 M,0.39 (11) spots per wing
same,Mutation rate (Spots per wing) Total spots m = 2,D. melanogaster [3]; GLA 22 mM + H2O2 0.12 M,0.42 spots per wing
same,Mutation rate (Spots per wing) Twin spots m = 5,D. melanogaster [3]; GLA 22 mM + H2O2 0.12 M,0.03 (1) spots per wing
same,% of inhibition,D. melanogaster [3]; GLA 22 mM + H2O2 0.12 M,17%
same,Mutation rate (Spots per wing) Large single spots (>2 cells) m = 5,D. melanogaster [3]; GLA 45 mM + H2O2 0.12 M,0.03 (1) spots per wing
same,Mutation rate (Spots per wing) Small single spots (1–2 cells) m = 2,D. melanogaster [3]; GLA 45 mM + H2O2 0.12 M,0.19 (5) spots per wing
same,Mutation rate (Spots per wing) Total spots m = 2,D. melanogaster [3]; GLA 45 mM + H2O2 0.12 M,0.26 spots per wing
same,Mutation rate (Spots per wing) Twin spots m = 5,D. melanogaster [3]; GLA 45 mM + H2O2 0.12 M,0.03 (1) spots per wing
same,% of inhibition,D. melanogaster [3]; GLA 45 mM + H2O2 0.12 M,49%
same,Mutation rate (Spots per wing) Large single spots (>2 cells) m = 5,D. melanogaster [3]; GLA 90 mM + H2O2 0.12 M,0.06 (1) spots per wing
same,Mutation rate (Spots per wing) Small single spots (1–2 cells) m = 2,D. melanogaster [3]; GLA 90 mM + H2O2 0.12 M,0.18 (3) spots per wing
same,Mutation rate (Spots per wing) Total spots m = 2,D. melanogaster [3]; GLA 90 mM + H2O2 0.12 M,0.25 spots per wing
same,Mutation rate (Spots per wing) Twin spots m = 5,D. melanogaster [3]; GLA 90 mM + H2O2 0.12 M,0 spots per wing
same,% of inhibition,D. melanogaster [3]; GLA 90 mM + H2O2 0.12 M,51%
same,antigenotoxicity,D. melanogaster [3]; compared to hydrogen peroxide,antimutagenic
same,"inhibitory potential against hydrogen peroxide, weighted average",D. melanogaster [3]; over all concentrations,38.1%
same,Survival % Simple treatment,D. melanogaster [4]; GLA 8.9 mM (lowest concentration),99%
same,Survival % Simple treatment,"D. melanogaster [4]; GLA 8.9 mM (lowest concentration), listed as Gamma-linolenic acid",99.25%
same,Survival % Combined Treatment,D. melanogaster [4]; GLA 8.9 mM + 0.12 M hydrogen peroxide,48.88*** %
same,Survival % Simple treatment,D. melanogaster [4]; GLA 13 mM,66.66*** %
same,Survival % Combined Treatment,D. melanogaster [4]; GLA 13 mM + 0.12 M hydrogen peroxide,22.22*** %
same,Survival % Simple treatment,D. melanogaster [4]; GLA 22 mM,39.25*** %
same,Survival % Combined Treatment,D. melanogaster [4]; GLA 22 mM + 0.12 M hydrogen peroxide,39.25*** %
same,Survival % Simple treatment,D. melanogaster [4]; GLA 45 mM,50.37*** %
same,Survival % Combined Treatment,D. melanogaster [4]; GLA 45 mM + 0.12 M hydrogen peroxide,37.77*** %
same,Survival % Simple treatment,D. melanogaster [4]; GLA 90 mM,20.74*** %
same,Survival % Combined Treatment,D. melanogaster [4]; GLA 90 mM + 0.12 M hydrogen peroxide,32.59*** %
same,decrease in survival,"D. melanogaster [4]; GLA, next higher concentration after the lowest (13 mM)",66%
same,toxicity to D. melanogaster,D. melanogaster [4]; lowest concentration of GLA,non-toxicity
same,average toxicities (survival),D. melanogaster [4]; plus hydrogen peroxide as a toxicant,31%
same,average toxicities (survival),D. melanogaster [4]; simple treatment,55%
CCCCC/C=C\C/C=C\C/C=C\C/C=C\CCCC(=O)O [arachidonic acid],toxicity to E9 cells,[5]; pretreatment with 0.03 mM,significant toxicity
same,concentrations with necrotic effect,[6]; high concentrations,400 to 1600 µM
same,concentrations with apoptotic effect,[6]; low concentrations,10 to 400 µM
OO [hydrogen peroxide],Mutation rate (Spots per wing) Large single spots (>2 cells) m = 5,D. melanogaster [1],0.03 (12) spots per wing
same,Mutation rate (Spots per wing) Small single spots (1–2 cells) m = 2,D. melanogaster [1],0.46 (126) spots per wing
same,Mutation rate (Spots per wing) Total spots m = 2,D. melanogaster [1],0.51 spots per wing
same,Mutation rate (Spots per wing) Twin spots m = 5,D. melanogaster [1],0.01 (3) spots per wing
same,N° of emerging adults,D. melanogaster [1],328
same,Total spots diagnosis,D. melanogaster [1],+
same,Total spots diagnosis,D. melanogaster [3]; in vivo,+
same,Survival percentage for 0.12 M hydrogen peroxide alone treatments,D. melanogaster [4]; 0.12 M hydrogen peroxide alone,84.44^(4) %
"CCCCCCCC/C=C\CCCCCCCC(=O)O [oleic acid, cis-9 octadecenoic]",toxicity to E9 cells,[5]; 0.05 mM,no significant toxicity

# Source: publication PMC3584109, “Protective Effect of Borage Seed Oil and Gamma Linolenic Acid on DNA: In Vivo and In Vitro Studies” (PLoS ONE, 2013)
